From patent US20160038468A1 (priority 2013, published 2016)

Columns and labels:
B. fragilis, ATCC 25285 = settings: agar dilution testing, from CLSI Table 5; cited from earlier work
[1] = tested on: bacterial vaginosis (BV) related organisms; experiment: Agar dilution MIC (CLSI), 411 vaginal BV related organisms overall; type: cell-based
Protocol: The method used was the reference method approved by the Clinical and Laboratory Standards Institute (CLSI). The CLSI is considered the gold standard for determining the lowest concentration of an antimicrobial agent that prevents growth of a microorganism in an agar dilution susceptibility test referred to as the minimal inhibitory concentration (MIC).
A total of 411 unique microbial isolates recovered from the human vagina of US women from a period of time from 2009 to 2012 were tested for antimicrobial susceptibility by the agar dilution method. A total of 13 analytical runs were conducted in order to analyze all of the samples. See, Example 1.
A total of 411 unique microbial isolates recovered from the human vagina from 2009-2012 were tested for antimicrobial susceptibility by the agar dilution method. This procedure followed the guidelines of the Clinical Laboratory Standard Institute reference agar dilution method (CLSI).
The MIC endpoint was read on the test plate. The MIC is that concentration at which a marked reduction occurs in the appearance of growth on the test plate as compared to the amount that of growth on the control plate. Examples of a marked change in growth include a change from confluent growth to a haze, less than 10 tiny colonies, or one to three normal sized colonies. The illustrated figures found in the CLSI manual should be used as a guide.

[2] = tested on: Clostridium difficile, ATCC 700057; settings: agar dilution testing, from CLSI Table 5; cited from earlier work
Lactobacilli = settings: pathogens: Gardnerella vaginalis, Mobiluncus spp, Bacteroides bivius-disiens; cited from earlier work

SMILES | Acceptable Range of MIC for control strain (B. fragilis, ATCC 25285) [µg/mL] | susceptibility of pathogenic strains in respect to clindamycin ([1]; Prevotella, Anaerococcus, Finegoldia, Peptoniphilus and Atopobium strains) | susceptibility of pathogenic strains in respect to metronidazole ([1]; Prevotella, Anaerococcus, Peptoniphilus, Atopobium, Megasphera and Mobiluncus strains) | efficacy against all pathogen vaginal bacteria judged from MICs, in comparison to metronidazole and clindamycin ([1]; in particular when Prevotella strains are present) | Acceptable Range of MIC for control strain [2] [µg/mL] | inhibitory action (MIC50 and MIC90) against Lactobacilli compared with action against pathogenic bacteria (Lactobacilli)
Cc1ncc([N+](=O)[O-])n1CCO [Metronidazole] | 0.25 to 1 | – | – | – | – | –
CO[C@H]1/C=C/O[C@@]2(C)Oc3c(C)c(O)c4c(O)c(c5c(nc6cc(C)ccn65)c4c3C2=O)NC(=O)/C(C)=C\C=C\[C@H](C)[C@H](O)[C@@H](C)[C@@H](O)[C@@H](C)[C@H](OC(C)=O)[C@@H]1C [Rifaximin] | – | higher susceptibility | higher susceptibility | more efficacious | 0.0039 to 0.0156 | equal to, or even higher than
